Laboratory results from patent US6525001B1, “Substituted pyrimidine and pyridine herbicides” (Mid-American Commercialization Corporation, priority 1997, dated 2003).

Legend:
Assay type in all cases: in vivo
Set-up in all cases: key: 0 is no effect; 10 is complete control
[1] = system: rape (Brassica napus); test: Test B pre-/postemergence
How it was run: (§1)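 Scored visually 0 (none) to 10 (complete control) against untreated plants after twelve to sixteen greenhouse days. Test chemicals, formulated in surfactant-containing non-phytotoxic solvent, applied to soil after planting and, separately, onto 1- to 4-leaf (2–18 cm) plants.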

[2] = system: soybean (Glycine max); test: Test B pre-/postemergence
How it was run: as §1

[3] = system: bamyardgrass (Echinochloa crus-galli); test: Test B flood test
How it was run: (§2)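 Flood test on plants grown to the 2-leaf stage; treated plants kept in greenhouse twelve to sixteen days, then visually rated against controls on a 0 (no effect) to 10 (complete control) scale.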

[4] = system: duck salad (Heteranthera limosa); test: Test B flood test
How it was run: as §2

[5] = system: rice (Oryza sativa); test: Test B flood test
How it was run: as §2

[6] = system: smallflower flatsedge (Cyperus difformis); test: Test B flood test
How it was run: as §2

[7] = Rate 62 g/ha, Postemergence (flood test)
[8] = Rate 125 g/ha, Postemergence, flood test
[9] = Rate 250 g/ha, Postemergence (flood test species)
[10] = Rate 250 g/ha, Postemergence (so in the source)
[11] = Rate 125 g/ha, Postemergence section (flood test species)
[12] = Preemergence, Rate 62 g/ha, scale of 0 to 10
[13] = Rate 500 g/ha, Postemergence (flood test species)

SMILES | Plant response rating, Rape ([1]; Rate 62 g/ha, Postemergence) | Rape plant response rating ([1]; Rate 62 g/ha, Preemergence) | Plant response rating, Rape ([1]; Rate 250 g/ha, Postemergence) | Plant response rating, Rape ([1]; Rate 250 g/ha, Preemergence) | Plant response rating, Soybean ([2]; Rate 62 g/ha, Postemergence) | Soybean plant response rating ([2]; Rate 62 g/ha, Preemergence) | Plant response rating, Soybean ([2]; Rate 250 g/ha, Postemergence) | Plant response rating, Soybean ([2]; Rate 250 g/ha, Preemergence) | Plant response rating, Barnyardgrass [3, 7] | Plant response rating, Barnyardgrass [3, 9] | Plant response rating, Ducksalad [4, 7] | Plant response rating, Ducksalad [4, 9] | Plant response rating, Rice [5, 7] | Plant response rating, Rice [5, 9] | Plant response rating, S. Flatsedge [6, 7] | Plant response rating, S. Flatsedge [6, 9] | Rape plant response rating ([1]; Rate 125 g/ha, Postemergence) | Soybean plant response rating ([2]; Rate 125 g/ha, Postemergence) | Plant response rating, Soybean ([2]; Rate 125 g/ha, Preemergence) | Rice plant response rating [5, 11] | other results
CCc1cnc(-c2ccc(C(F)(F)F)cc2)nc1Cc1cccc(C(F)(F)F)c1 [Compound 22] | 10 | 5 | 10 | 10 | 6 | 1 | 8 | 2 | 4 | 6 | 3 | 6 | 3 | 5 | 3 | 9 | – | – | – | – | Plant response rating, Rape ([1]; Rate 125 g/ha, Postemergence): 10; Rape plant response rating ([1]; Rate 125 g/ha, Preemergence): 7; Plant response rating, Soybean ([2]; Rate 125 g/ha, Postemergence): 7; Soybean plant response rating ([2]; Rate 125 g/ha, Preemergence): 1; Plant response rating, Barnyardgrass [3, 8]: 5; Plant response rating, Ducksalad [4, 8]: 4; Plant response rating, Rice [5, 8]: 4; Plant response rating, S. Flatsedge [6, 8]: 8
Cc1cnc(-n2cnc(C(F)(F)F)c2)nc1Cc1cccc(C(F)(F)F)c1 [Compound 44] | 9 | 4 | 10 | – | 5 | 0 | 6 | – | 3 | 4 | 4 | 9 | 5 | 7 | 9 | 9 | 10 | 6 | 2 | 6 | Rape plant response rating ([1]; Rate 125 g/ha, Preemergence): 8; Plant response rating, Rape [1, 10]: 10; Plant response rating, Soybean [2, 10]: 2; Plant response rating, Barnyardgrass [3, 8]: 4; Plant response rating, Ducksalad [4, 8]: 7; S. Flatsedge plant response rating [6, 11]: 9
Cc1cnc(-n2cnc(C(F)(F)F)n2)nc1Cn1ccc(C(F)(F)F)n1 [Compound 51] | 9 | 10 | 10 | 10 | 9 | 9 | 10 | 9 | 5 | 7 | 8 | 9 | 3 | 8 | 9 | 9 | 9 | 9 | 9 | 5 | Plant response rating, Rape ([1]; Rate 125 g/ha, Preemergence): 10; Barnyardgrass plant response rating [3, 11]: 6; Ducksalad plant response rating [4, 11]: 9; S. Flatsedge plant response rating [6, 11]: 9
Cc1cnc(-c2ccc(C(F)(F)F)cc2)nc1Cn1ccc(C#N)n1 [Compound 53] | – | – | 8 | 7 | – | – | 7 | 0 | – | 2 | – | 5 | – | 1 | – | 9 | 8 | 5 | 0 | 1 | Plant response rating, Rape [1, 12]: 2; Rape plant response rating ([1]; Rate 62 g/ha, Postemergence): 8; Plant response rating, Rape ([1]; Rate 125 g/ha, Preemergence): 5; Plant response rating, Rape ([1]; Rate 500 g/ha, Postemergence): 9; Plant response rating, Rape ([1]; Rate 500 g/ha, Preemergence): 7; Plant response rating, Soybean [2, 12]: 0; Soybean plant response rating ([2]; Rate 62 g/ha, Postemergence): 5; Plant response rating, Soybean ([2]; Rate 500 g/ha, Postemergence): 7; Plant response rating, Soybean ([2]; Rate 500 g/ha, Preemergence): 0; Barnyardgrass plant response rating [3, 7]: 1; Barnyardgrass plant response rating [3, 11]: 2; Plant response rating, Barnyardgrass [3, 13]: 2; Ducksalad plant response rating [4, 7]: 0; Ducksalad plant response rating [4, 11]: 2; Plant response rating, Ducksalad [4, 13]: 7; Rice plant response rating [5, 7]: 1; Plant response rating, Rice [5, 13]: 2; S. Flatsedge plant response rating [6, 7]: 5; S. Flatsedge plant response rating [6, 11]: 8; Plant response rating, S. Flatsedge [6, 13]: 9
